In patent publication US6759385B1, “Methods to treat undesirable immune responses” (Regents of the University of Minnesota, priority 1997, dated 2004):
“And” between values parts separate entries of the source, which are not always exact repeats. Equal entries are not always repeated.

Legend:
Format in all cases: in vivo, mouse
[1] = tested on: EMG in B6 mice immunized with TAChR; test: Nasal tolerization, EMG symptoms by pancuronium-sensitized inverted hang test (Example I)
Description: Mice and Induction of Tolerance. B6 mice were purchased from Jackson Laboratory (Bar Harbor, Me.) and housed at the animal facility of the University of Minnesota. After light anesthesia by i.m. injection of Ketaset (100 mg/kg; Alveco Co., Inc., Fort Dodge, Iowa), the mice received into both nostrils a total of 25 μl of PBS containing 50 μg of peptide Tα150-169, either alone or pooled with equimolar amounts of peptides Tα180-200 and Tα360-378 (referred to as “peptide pool” or “αpool” ). The dose was based on the results of an experiment in which increasing amounts of peptide α150-169 were used (50 μg, 100 μg, 200 μg, 400 μg and 800 μg). […] The tolerogen was administered as a solution instilled into the nostrils, a method of delivery which allowed accurate administration of a defined amount of solution.
In protocol A, peptides or peptide-free PBS were administered two weeks before the first TAChR immunization, and then three more times, on the same day as the three immunizations with TAChR (at one month intervals, see below). In protocol B, peptides or peptide-free PBS were administered weekly, starting two weeks before beginning of the immunization with TAChR, for a total of 14 treatments (two before and 12 during TAChR immunization).
Immunization. Eight-ten week old mice were immunized by subcutaneous injections, along the back and at the base of the tail, with solubilized TAChR (50 μg), peptide Tα150-169 (100 μg), or the peptide pool (100 μg of each peptide). The mice were boosted twice at 4 week intervals with the same amouni of antigen. The antigen solutions (in 100 μl PBS) were emulsified with an equal volume of complete Freund's adjuvant (FA) for the first injection, and with incomplete FA for the boosts. Control mice were injected with PBS emulsified in the appropriate adjuvant.
Evaluation of the Clinical Symptoms of EMG. EMG symptoms were quantified by a forced exercise using the inverted hang technique, sensitized by administration of a minute amount of pancuronium bromide (0-03 mg/kg i.p.) just prior to the beginning of the test (Karachunski et al., 1995). The mice hang from a grid, and the time it takes for the mouse to release its hold and fall three times (“holding time”) was measured. The test was performed on the day of the first nasal administration, on the day before each immunization, and 7-14 days after the third immunization, just before sacrificing the animal. This test is parametric, and gives a quantitative assessment of the severity of the weakness.
The holding time of normal mice was 10.4±2.1 minutes (n=99). […]

[2] = tested on: EMG in B6 mice immunized with TAChR; test: Subcutaneous tolerization, prevention protocol, EMG symptoms (Example IV)
Description: B6 mice (Jackson Laboratory, Bar Harbor, Me.) were injected s.c. with 100 μl of PBS containing increasing amounts of a pool of the same amount in weight of each of the three epitope peptides Tα150-169, Tα180-200 and Tα360-378 (‘peptide pool’), or 200 μg of Tα150-169 alone, or 100 μl of PBS containing 0.1% Triton X-100 and 10 μg of solubilized TAChR. Two different treatment schedules were used, referred to as prevention and post-priming protocols. In the prevention protocol, the peptides or solubilized TAChR were administered twice per week for 14 weeks, starting 2 weeks before the beginning of the immunization with TAChR. In the post-priming protocol, peptides or solubilized TAChR were administered twice per week for […], starting 8 weeks after the beginning of the TAChR immunization. Control mice received 100 μl of peptide-free PBS, following the same schedules.
Immunization 8-10 week old mice were immunized by s.c. injections, along the back and at the base of the tail, of TAChR (a total of 50 μg in 100 μl of PBS for each immunization) emulsified in an equal volume of CFA for the first injection, and IFA for the following two boosts. The mice were injected for a total of three times at 3-4 week intervals. At the end of the observation period, the mice received a third boost, and were sacrificed 5-7 days later. Control mice were injected with clean PBS in the appropriate adjuvant.
Evaluation of the symptoms of EMG The EMG symptoms were quantified using a forced exercise test sensitized by i.p. injection of a minute amount of pancuronium bromide (0.03 mg/kg) just before the test (Karachunski et al., 1995). The mouse hangs from a grid suspended above a soft padding, and the time it takes the mouse to fall three times (‘holding time’) was measured. The test is parametric, and gives a quantitative assessment of the mouse weakness. The myasthenic nature of the weakness was verified by injecting i.p. edrophonium chloride (Reversol, Organon, West Orange, N.J.), which is a cholinesterase inhibitor. […] The mice were tested without knowledge of their treatment.
The holding time of normal mice was 10.4±2.1 minutes (n=99). Mice with holding times of 8 minutes or longer were considered normal. Mice with holding times less than 6.2 minutes (the holding time of normal mice minus two SD) were considered to have fully developed EMG. Holding times of 6.2-8 minutes were considered to potentially indicate initial EMG. Normal or sham-immunized mice had occasionally holding times of 6.2-8 minutes, but never less than 6.2 minutes. Paralyzed mice and mice that died of respiratory paralysis are indicated as having holding time of 0 minutes.

serum anti-TAChR Ab = test: Anti-TAChR IgG and IgG1 radioimmunoprecipitation assay (Example IV)
Description: Anti-TAChR Ab assay. Sera was obtained from each mouse after each clinical testing and at the end of the observation period (12 weeks after beginning of the TAChR immunization). The serum concentration of anti-TAChR IgG and IgGI was determined by radioimmunoprecipitation assay, using TAChR solubilized in Triton X-100 and labeled by the binding of ^125I-α-BTX (Bellone et al., 1991a). As a secondary Ab, either rabbit anti-mouse IgG produced, or goat anti-mouse IgG1 (Sigma, St. Louis, Mo.), was used. The anti-TAChR Ab concentration is expressed as μM precipitated ^125I-α-BTX binding sites.
Two types of experiments were carried out. In one of them the total anti-TAChR Ab in the sera of individual mice, obtained 8, 10 and 12 weeks after the first TAChR immunization, was determined. In the other, the anti-TAChR IgG1 concentration was determined, as well as the total anti-TAChR IgG concentration, in sera obtained at the end of the observation period. For this second assay pooled sera from five mice that had received identical treatments was used.

[3] = s.c. 200 μg/injection, second experiment
[4] = s.c. 200 μg, pooled sera of five mice

peptide Tα150-169: synthetic peptide corresponding to residues 150-169 of the TAChR α subunit (TYDGTKVSISPESDRPDLST; UniProt P02710 174-193, looked up, fragment)
mice that developed EMG ([1]; nasal protocol A (monthly), TAChR-immunized B6 mice): 42% | mice with detectable weakness ([1]; nasal protocol B (weekly), TAChR-immunized B6 mice): none | protection from EMG, dose finding ([1]; nasal, lowest dose 50 μg of 50-800 μg): satisfactory level of protection | holding time compared with sham-tolerized mice ([1]; nasal, protocols A and B): significantly longer holding times | mice with EMG at 8 weeks [2, 3]: One mouse | prevention of EMG [2, 3]: prevented EMG effectively | holding times compared with sham-tolerized groups ([2]; s.c. prevention protocol): significantly longer holding times | reduction of anti-TAChR IgG1 (serum anti-TAChR Ab; 200 μg, p<0.008): very modest reduction | anti-TAChR Ab concentrations compared with sham-treated groups (serum anti-TAChR Ab; at 12 weeks, s.c. prevention protocol): significantly and substantially lower | IgG1 anti-TAChR (serum anti-TAChR Ab; [4]): 0.22 ± 0.005 µM and 0.27 ± 0.01 µM | Total IgG anti-TAChR (serum anti-TAChR Ab; [4]): 0.47 ± 0.01 µM and 0.28 ± 0.015 µM
